# Patent US20240197652A1, “KETAMINE IN THE TREATMENT OF […]” (Awakn LS Europe Holdings Limited, priority 2021, published 2024)
# Experiments:
# Type in all cases: in vivo, human
# [1] = tested on: subjects with gambling disorder; experiment: Gambling Related Cognitions Scale (GRCS), gambling expectancy, Example 7; conditions: for problem gambling expectancy score (GRCS) at 2-week follow up: after 100 mg racemic ketamine sublingual; for problem gambling expectancy score (GRCS), pre-administration: baseline before 100 mg racemic ketamine sublingual; for % change in problem gambling expectancy: pre-administration to 2-week follow up, 100 mg racemic ketamine sublingual
# Procedure: (§1) The study spanned a total of 30 days (not counting initial contact and prescreening). Prescreening of all subjects was conducted by phone, and subjects recorded self-report measures, including the Sensitivity to Punishment and Sensitivity to Reward Questionnaire (SPSRQ) and the Gambling Related Cognitions Questionnaire. Prior to beginning treatment, each subject completed the Beck Depression Inventory (BDI) to determine a baseline depression score. Total scores of 0-13 are minimal, 14-19 are mild, 20-28 are moderate, and 29-63 are severe (Beck, Steer, and Brown, 1996).
# The remaining follow-up sessions were completed online. Follow-up 1 was completed on Day 4, Follow-up 2 on Day 14, and Follow-up 3 on Day 30. At each follow-up session, the same self-report measures and behavioural tasks were completed.
# The five-factor Gambling Related Cognitions Scale (GRCS) was also assessed. The GRCS evaluates gambling-related cognitive distortions for all types of gamblers, regardless of their gambling activities (poker, slots, horse racing, etc.) (Levesque et al., 2017). The GRCS contains five main domains, including inability to stop, expectancies, predictive control, illusion of control, and interpretative bias (Muela, Navas, and Perales, 2021). Gambling expectancy and inability to stop were predictive of problem gambling.
# [2] = tested on: subjects with gambling disorder; experiment: Adverse events, Ketamine Side Effect Tool (KSET), Example 7; conditions: five gambling disorder subjects; 100 mg racemic ketamine sublingual
# Procedure: Adverse events were assessed with the Ketamine Side Effect Tool (KSET).
# [3] = tested on: subjects with CSBD; experiment: Hours of pornography viewed per day, Example 10; conditions: for hours of pornography watched daily at 2-week follow up: after 100 mg racemic ketamine sublingual; for hours of pornography watched daily, pre-administration: baseline before 100 mg racemic ketamine sublingual; for % change in hours of pornography viewed: pre-administration to 2-week follow up, 100 mg racemic ketamine sublingual
# Procedure: A study was completed on the use of ketamine to treat CSBD. Subjects were assessed for CSBD using the Problematic Pornography Use Scale (PPUS) and were included if they received an PPUS score greater than 3. Three subjects in total were included (CSB1-CSB3). All three were administered sublingual lozenges comprising 100 mg of racemic ketamine.
# The treatment protocol commenced in the same way as disclosed in the ketamine in subjects with gambling disorder study completed in EXAMPLE 7, with the exceptions outlined as follows: No behavioural tasks were completed. Self-report measures completed during EXAMPLE 10 included the Emotional Intimacy Measure, the Childhood Trauma Questionnaire, the Generalised Anxiety Disorder-7 (GAD-7), the Morningness-Eveningness Questionnaire (MEQ), and the Problematic Pornography Questionnaire (PPQ), the Acceptance and Action Questionnaire, and the Psychological and Interpersonal Relationship Scales (PAIRS).
# [4] = tested on: subjects of EXAMPLES 7-10; experiment: Beck Depression Inventory (BDI), subjects of Examples 7-10; conditions: for BDI Score at the one-week follow up / Depression Severity at the One Week Follow Up (BDI): after 100 mg racemic ketamine sublingual; for BDI Score pre-treatment / Depression Severity Pre-Treatment (BDI): baseline before 100 mg racemic ketamine sublingual; for % Change in BDI score: pre-treatment to one-week follow up, 100 mg racemic ketamine sublingual
# Procedure: as §1
# [5] = subject BE1 (binge eating disorder)
# [6] = subject BE2 (binge eating disorder)
# [7] = subject BE3 (binge eating disorder)
structure (smiles),measurement,setting,value
"CNC1(c2ccccc2Cl)CCCCC1=O (racemic) [ketamine, 2-(2-chlorophenyl)-2-(methylamino)-cyclohexanone]",problem gambling expectancy score (GRCS) at 2-week follow up,[1]; subject G1,5.5
same,"problem gambling expectancy score (GRCS), pre-administration",[1]; subject G1,5
same,% change in problem gambling expectancy,[1]; subject G1,+10%
same,problem gambling expectancy score (GRCS) at 2-week follow up,[1]; subject G2,2.5
same,"problem gambling expectancy score (GRCS), pre-administration",[1]; subject G2,5.5
same,% change in problem gambling expectancy,[1]; subject G2,−54.55%
same,problem gambling expectancy score (GRCS) at 2-week follow up,[1]; subject G3,4.5
same,"problem gambling expectancy score (GRCS), pre-administration",[1]; subject G3,5.25
same,% change in problem gambling expectancy,[1]; subject G3,−14.29%
same,problem gambling expectancy score (GRCS) at 2-week follow up,[1]; subject G4,2.5
same,"problem gambling expectancy score (GRCS), pre-administration",[1]; subject G4,3.75
same,% change in problem gambling expectancy,[1]; subject G4,−33.33%
same,problem gambling expectancy score (GRCS) at 2-week follow up,[1]; subject G5,1
same,"problem gambling expectancy score (GRCS), pre-administration",[1]; subject G5,1.25
same,% change in problem gambling expectancy,[1]; subject G5,−20%
same,course of adverse events,[2],"All adverse events were transient, and resolved two hours post-lozenge"
same,overall tolerability,[2],"well-tolerated, with no drop-outs"
same,unexpected adverse reactions (KSET),[2],No unexpected adverse reactions were observed
same,hours of pornography watched daily at 2-week follow up,[3]; subject CSB1,0.5 h
same,"hours of pornography watched daily, pre-administration",[3]; subject CSB1,2 h
same,% change in hours of pornography viewed,[3]; subject CSB1,−75%
same,hours of pornography watched daily at 2-week follow up,[3]; subject CSB2,3 h
same,"hours of pornography watched daily, pre-administration",[3]; subject CSB2,4 h
same,% change in hours of pornography viewed,[3]; subject CSB2,−25%
same,hours of pornography watched daily at 2-week follow up,[3]; subject CSB3,1 h
same,"hours of pornography watched daily, pre-administration",[3]; subject CSB3,1 h
same,BDI Score at the one-week follow up,[4]; [5],2
same,BDI Score pre-treatment,[4]; [5],9
same,% Change in BDI score,[4]; [5],−77.78%
same,BDI Score at the one-week follow up,[4]; [6],15
same,BDI Score pre-treatment,[4]; [6],19
same,% Change in BDI score,[4]; [6],−21.05%
same,BDI Score at the one-week follow up,[4]; [7],1
same,BDI Score pre-treatment,[4]; [7],21
same,% Change in BDI score,[4]; [7],−95.24%
same,Depression Severity at the One Week Follow Up (BDI),[4]; subject BE3,Minimal (Total scores of 0-13 are minimal)
same,Depression Severity Pre-Treatment (BDI),[4]; subject BE3,Moderate (20-28 are moderate)
same,BDI Score at the one-week follow up,[4]; subject CSB1 (CSBD),9
same,BDI Score pre-treatment,[4]; subject CSB1 (CSBD),24
same,% Change in BDI score,[4]; subject CSB1 (CSBD),−62.50%
same,Depression Severity at the One Week Follow Up (BDI),[4]; subject CSB1,Minimal (Total scores of 0-13 are minimal)
same,Depression Severity Pre-Treatment (BDI),[4]; subject CSB1,Moderate (20-28 are moderate)
same,BDI Score at the one-week follow up,[4]; subject CSB2 (CSBD),12
same,BDI Score pre-treatment,[4]; subject CSB2 (CSBD),14
same,% Change in BDI score,[4]; subject CSB2 (CSBD),−14.29%
same,Depression Severity at the One Week Follow Up (BDI),[4]; subject CSB2,Minimal (Total scores of 0-13 are minimal)
same,Depression Severity Pre-Treatment (BDI),[4]; subject CSB2,Mild (14-19 are mild)
same,BDI Score at the one-week follow up,[4]; subject CSB3 (CSBD),7
same,BDI Score pre-treatment,[4]; subject CSB3 (CSBD),19
same,% Change in BDI score,[4]; subject CSB3 (CSBD),−63.16%
same,Depression Severity at the One Week Follow Up (BDI),[4]; subject CSB3,Minimal (Total scores of 0-13 are minimal)
same,Depression Severity Pre-Treatment (BDI),[4]; subject CSB3,Mild (14-19 are mild)
same,BDI Score at the one-week follow up,[4]; subject G1 (gambling disorder),9
same,BDI Score pre-treatment,[4]; subject G1 (gambling disorder),8
same,% Change in BDI score,[4]; subject G1 (gambling disorder),+12.5%
same,BDI Score at the one-week follow up,[4]; subject G2 (gambling disorder),24
same,BDI Score pre-treatment,[4]; subject G2 (gambling disorder),21
same,% Change in BDI score,[4]; subject G2 (gambling disorder),+14.29%
same,BDI Score at the one-week follow up,[4]; subject G3 (gambling disorder),14
same,BDI Score pre-treatment,[4]; subject G3 (gambling disorder),17
same,% Change in BDI score,[4]; subject G3 (gambling disorder),−17.65%
same,BDI Score at the one-week follow up,[4]; subject G4 (gambling disorder),6
same,BDI Score pre-treatment,[4]; subject G4 (gambling disorder),8
same,% Change in BDI score,[4]; subject G4 (gambling disorder),−25%
same,BDI Score at the one-week follow up,[4]; subject G5 (gambling disorder),11
same,BDI Score pre-treatment,[4]; subject G5 (gambling disorder),12
same,% Change in BDI score,[4]; subject G5 (gambling disorder),−8.33%
same,BDI Score at the one-week follow up,[4]; subject IG1 (gaming disorder),10
same,BDI Score pre-treatment,[4]; subject IG1 (gaming disorder),15
same,% Change in BDI score,[4]; subject IG1 (gaming disorder),−33.33%
same,Depression Severity at the One Week Follow Up (BDI),[4]; subject IG1,Minimal (Total scores of 0-13 are minimal)
same,Depression Severity Pre-Treatment (BDI),[4]; subject IG1,Mild (14-19 are mild)
same,BDI Score at the one-week follow up,[4]; subject IG2 (gaming disorder),8
same,BDI Score pre-treatment,[4]; subject IG2 (gaming disorder),4
same,% Change in BDI score,[4]; subject IG2 (gaming disorder),+100%
same,BDI Score at the one-week follow up,[4]; subject IG3 (gaming disorder),9
same,BDI Score pre-treatment,[4]; subject IG3 (gaming disorder),10
same,% Change in BDI score,[4]; subject IG3 (gaming disorder),−10%
